# Test results published in PubChem BioAssay (NCI).
#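 Each compound was tested at five concentrations against cells in 96-well plates for 48 hours. The concentration for 50% growth inhibition is given as GI50. TGI marks complete inhibition of growth.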
# Columns and labels:
# Assay in all cases: DTP human tumour cell line panel, 48 h
# RPMI-8226 leukemia = tested on: RPMI-8226 leukemia
# HT29 colon = tested on: HT29 colon
# T-47D breast = tested on: T-47D breast
# DU-145 prostate = tested on: DU-145 prostate
# SF-268 CNS = tested on: SF-268 CNS
# HL-60(TB) leukemia = tested on: HL-60(TB) leukemia
# RXF 393 renal = tested on: RXF 393 renal
# NCI-H522 lung = tested on: NCI-H522 lung
# SNB-75 CNS = tested on: SNB-75 CNS
# HCT-15 colon = tested on: HCT-15 colon
# IGROV1 ovarian = tested on: IGROV1 ovarian
# HS 578T breast = tested on: HS 578T breast
# MOLT-4 leukemia = tested on: MOLT-4 leukemia
# SF-295 CNS = tested on: SF-295 CNS
# BT-549 breast = tested on: BT-549 breast
# NCI-H23 lung = tested on: NCI-H23 lung
# HOP-92 NSCLC = tested on: HOP-92 NSCLC
# OVCAR-8 ovarian = tested on: OVCAR-8 ovarian
# OVCAR-3 ovarian = tested on: OVCAR-3 ovarian
# SF-539 CNS = tested on: SF-539 CNS
# CCRF-CEM leukemia = tested on: CCRF-CEM leukemia
# A549 NSCLC = tested on: A549 NSCLC
# UO-31 renal = tested on: UO-31 renal
# LOX IMVI melanoma = tested on: LOX IMVI melanoma
# 786-0 renal = tested on: 786-0 renal
# COLO 205 colon = tested on: COLO 205 colon
# EKVX NSCLC = tested on: EKVX NSCLC
# MDA-MB-231 breast = tested on: MDA-MB-231 breast
# SK-MEL-5 melanoma = tested on: SK-MEL-5 melanoma
# MDA-MB-435 = tested on: MDA-MB-435
# SK-OV-3 ovarian = tested on: SK-OV-3 ovarian
# ACHN renal = tested on: ACHN renal
# UACC-62 melanoma = tested on: UACC-62 melanoma
# K-562 leukemia = tested on: K-562 leukemia
# HCC-2998 colon = tested on: HCC-2998 colon
# SR leukemia = tested on: SR leukemia
# MCF7 breast = tested on: MCF7 breast
# NCI-H226 lung = tested on: NCI-H226 lung
# KM12 colon = tested on: KM12 colon
# SN12C renal = tested on: SN12C renal
# TK-10 renal = tested on: TK-10 renal
# SW-620 colon = tested on: SW-620 colon
# OVCAR-4 ovarian = tested on: OVCAR-4 ovarian
# A498 renal = tested on: A498 renal
# HCT-116 colon = tested on: HCT-116 colon
# NCI/ADR-RES ovarian = tested on: NCI/ADR-RES ovarian
# U251 CNS = tested on: U251 CNS
# M14 melanoma = tested on: M14 melanoma
# SK-MEL-28 melanoma = tested on: SK-MEL-28 melanoma
# OVCAR-5 ovarian = tested on: OVCAR-5 ovarian
# NCI-H460 lung = tested on: NCI-H460 lung
# CAKI-1 renal = tested on: CAKI-1 renal
# HOP-62 NSCLC = tested on: HOP-62 NSCLC
# PC-3 prostate = tested on: PC-3 prostate
# SNB-19 CNS = tested on: SNB-19 CNS
# SK-MEL-2 melanoma = tested on: SK-MEL-2 melanoma
compound,measurement,setting,value
O=S(=O)(Cc1ccc(Cl)cc1Cl)c1ccc(Cl)cc1,GI50,RPMI-8226 leukemia,1.14 µM
same,TGI,RPMI-8226 leukemia,> 69.7 µM
same,GI50,HT29 colon,0.338 µM
same,TGI,HT29 colon,3.84 µM
same,GI50,T-47D breast,6.02 µM
same,TGI,T-47D breast,> 100 µM
same,GI50,DU-145 prostate,1.74 µM
same,TGI,DU-145 prostate,16.1 µM
same,GI50,SF-268 CNS,0.827 µM
same,TGI,SF-268 CNS,> 100 µM
same,GI50,HL-60(TB) leukemia,0.37 µM
same,TGI,HL-60(TB) leukemia,17.7 µM
same,GI50,RXF 393 renal,1.4 µM
same,TGI,RXF 393 renal,7.55 µM
same,GI50,NCI-H522 lung,0.282 µM
same,TGI,NCI-H522 lung,2.27 µM
same,GI50,SNB-75 CNS,0.732 µM
same,TGI,SNB-75 CNS,> 27.5 µM
same,GI50,HCT-15 colon,0.419 µM
same,TGI,HCT-15 colon,> 100 µM
same,GI50,IGROV1 ovarian,0.445 µM
same,TGI,IGROV1 ovarian,> 21.9 µM
same,GI50,HS 578T breast,0.729 µM
same,TGI,HS 578T breast,> 100 µM
same,GI50,MOLT-4 leukemia,1.14 µM
same,TGI,MOLT-4 leukemia,> 100 µM
same,GI50,SF-295 CNS,0.495 µM
same,TGI,SF-295 CNS,10.8 µM
same,GI50,BT-549 breast,1.54 µM
same,TGI,BT-549 breast,> 75.4 µM
same,GI50,NCI-H23 lung,0.878 µM
same,TGI,NCI-H23 lung,> 100 µM
same,GI50,HOP-92 NSCLC,20.8 µM
same,TGI,HOP-92 NSCLC,> 92.5 µM
same,GI50,OVCAR-8 ovarian,1.22 µM
same,TGI,OVCAR-8 ovarian,> 100 µM
same,GI50,OVCAR-3 ovarian,0.346 µM
same,TGI,OVCAR-3 ovarian,1.8 µM
same,GI50,SF-539 CNS,0.47 µM
same,TGI,SF-539 CNS,3.72 µM
same,GI50,CCRF-CEM leukemia,0.505 µM
same,TGI,CCRF-CEM leukemia,> 100 µM
same,GI50,A549 NSCLC,0.693 µM
same,TGI,A549 NSCLC,> 100 µM
same,GI50,UO-31 renal,1.03 µM
same,TGI,UO-31 renal,> 53.3 µM
same,GI50,LOX IMVI melanoma,0.587 µM
same,TGI,LOX IMVI melanoma,> 100 µM
same,GI50,786-0 renal,1.84 µM
same,TGI,786-0 renal,> 100 µM
same,GI50,COLO 205 colon,0.548 µM
same,TGI,COLO 205 colon,5.52 µM
same,GI50,EKVX NSCLC,2.11 µM
same,TGI,EKVX NSCLC,> 100 µM
same,GI50,MDA-MB-231 breast,2.38 µM
same,TGI,MDA-MB-231 breast,> 61.6 µM
same,GI50,SK-MEL-5 melanoma,0.437 µM
same,TGI,SK-MEL-5 melanoma,24.4 µM
same,GI50,MDA-MB-435,0.13 µM
same,TGI,MDA-MB-435,0.671 µM
same,GI50,SK-OV-3 ovarian,1.47 µM
same,TGI,SK-OV-3 ovarian,> 57.7 µM
same,GI50,ACHN renal,1.04 µM
same,TGI,ACHN renal,> 100 µM
same,GI50,UACC-62 melanoma,0.502 µM
same,TGI,UACC-62 melanoma,> 100 µM
same,GI50,K-562 leukemia,0.303 µM
same,TGI,K-562 leukemia,> 100 µM
same,GI50,HCC-2998 colon,1.09 µM
same,TGI,HCC-2998 colon,8.97 µM
same,GI50,SR leukemia,0.296 µM
same,TGI,SR leukemia,11 µM
same,GI50,MCF7 breast,0.341 µM
same,TGI,MCF7 breast,> 100 µM
same,GI50,NCI-H226 lung,4.52 µM
same,TGI,NCI-H226 lung,> 100 µM
same,GI50,KM12 colon,0.372 µM
same,TGI,KM12 colon,> 100 µM
same,GI50,SN12C renal,1.5 µM
same,TGI,SN12C renal,> 100 µM
same,GI50,TK-10 renal,1.01 µM
same,TGI,TK-10 renal,> 53.9 µM
same,GI50,SW-620 colon,0.365 µM
same,TGI,SW-620 colon,> 100 µM
same,GI50,OVCAR-4 ovarian,5.73 µM
same,TGI,OVCAR-4 ovarian,> 100 µM
same,GI50,A498 renal,0.317 µM
same,TGI,A498 renal,16.3 µM
same,GI50,HCT-116 colon,0.471 µM
same,TGI,HCT-116 colon,> 100 µM
same,GI50,NCI/ADR-RES ovarian,0.478 µM
same,TGI,NCI/ADR-RES ovarian,3.59 µM
same,GI50,U251 CNS,0.496 µM
same,TGI,U251 CNS,> 100 µM
same,GI50,M14 melanoma,0.5 µM
same,TGI,M14 melanoma,48.2 µM
same,GI50,SK-MEL-28 melanoma,1.97 µM
same,TGI,SK-MEL-28 melanoma,> 100 µM
same,GI50,OVCAR-5 ovarian,4.28 µM
same,TGI,OVCAR-5 ovarian,> 100 µM
same,GI50,NCI-H460 lung,0.401 µM
same,TGI,NCI-H460 lung,30 µM
same,GI50,CAKI-1 renal,0.52 µM
same,TGI,CAKI-1 renal,> 100 µM
same,GI50,HOP-62 NSCLC,3.36 µM
same,TGI,HOP-62 NSCLC,> 100 µM
same,GI50,PC-3 prostate,1.28 µM
same,TGI,PC-3 prostate,> 100 µM
same,GI50,SNB-19 CNS,1.38 µM
same,TGI,SNB-19 CNS,> 100 µM
same,GI50,SK-MEL-2 melanoma,0.326 µM
